ChEMBL document CHEMBL1135793 (J Med Chem, 2002)
pIC50: −log10 of the molar value. Positions of bridges follow the written chain, without caps; N, C: chain ends. Non-standard residues stand in square brackets, D forms with d. Residues, ends and D or L forms follow the SMILES beside them. Nle = CCCC[C@H](N)C(=O)O

The molecules below were run against Urokinase plasminogen activator surface receptor (Homo sapiens, UniProt Q03405) (assay: Inhibitory activity against human Urokinase plasminogen activator receptor (uPAR) was determined).
Urokinase plasminogen activator surface receptor, sequence (Q03405 whole entry): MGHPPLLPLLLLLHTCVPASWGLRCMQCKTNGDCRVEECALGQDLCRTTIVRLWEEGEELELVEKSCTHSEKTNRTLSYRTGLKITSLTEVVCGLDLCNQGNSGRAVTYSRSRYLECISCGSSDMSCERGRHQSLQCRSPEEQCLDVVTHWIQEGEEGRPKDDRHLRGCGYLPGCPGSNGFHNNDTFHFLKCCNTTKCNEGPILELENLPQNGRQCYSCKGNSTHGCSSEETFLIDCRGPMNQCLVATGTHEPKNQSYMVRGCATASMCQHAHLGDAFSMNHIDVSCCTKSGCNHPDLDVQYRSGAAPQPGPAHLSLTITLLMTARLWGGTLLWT

Row | pIC50 | Structure (SMILES)
1 | < 4.52 | CC[C@H](C)[C@@H]1NC(=O)[C@H](CC(N)=O)NC(=O)[C@H](CO)NC(=O)[C@H](Cc2ccccc2)NC(=O)[C@H](Cc2ccc(O)cc2)NC(=O)[C@@H](CCCCN)NC(=O)[C@H](CC(N)=O)NC(=O)[C@@H](N)CSSC[C@@H](C(=O)N[C@@H](Cc2c[nH]c3ccccc23)C(=O)O)NC1=O
2 | 7.10 | CC[C@H](C)[C@@H]1NC(=O)[C@H](CC(N)=O)NC(=O)[C@H](CO)NC(=O)[C@H](Cc2ccccc2)NC(=O)[C@H](Cc2ccc3ccccc3c2)NC(=O)[C@H](CCCCN)NC(=O)[C@H](CC(N)=O)NC(=O)[C@H](N)CSSC[C@@H](C(=O)N[C@@H](Cc2c[nH]c3ccccc23)C(=O)O)NC1=O
3 | 6.05 | CC[C@H](C)[C@@H]1NC(=O)[C@H](CC(N)=O)NC(=O)[C@H](CO)NC(=O)[C@H](Cc2ccccc2)NC(=O)[C@H](Cc2ccc(O)cc2)NC(=O)[C@H](CCCCN)NC(=O)[C@H](CC(N)=O)NC(=O)[C@@H](N)CSSC[C@@H](C(=O)N[C@@H](Cc2c[nH]c3ccccc23)C(=O)O)NC1=O
4 | < 4.52 | CC[C@H](C)[C@@H]1NC(=O)[C@H](CC(N)=O)NC(=O)[C@@H](CO)NC(=O)[C@H](Cc2ccccc2)NC(=O)[C@H](Cc2ccc(O)cc2)NC(=O)[C@H](CCCCN)NC(=O)[C@H](CC(N)=O)NC(=O)[C@@H](N)CSSC[C@@H](C(=O)N[C@@H](Cc2c[nH]c3ccccc23)C(=O)O)NC1=O
5 | 6.70 | CC[C@H](C)[C@@H]1NC(=O)[C@H](CC(N)=O)NC(=O)[C@H](CO)NC(=O)[C@H](Cc2ccccc2)NC(=O)[C@H](Cc2ccc(O)cc2)NC(=O)[C@H](CCCCN)NC(=O)[C@H](CC(N)=O)NC(=O)[C@H](CO)NC(=O)[C@H](C(C)C)NC(=O)[C@H](N)CSSC[C@@H](C(=O)O)NC(=O)[C@H](Cc2c[nH]c3ccccc23)NC(=O)[C@H](Cc2c[nH]cn2)NC1=O
6 | 7.30 | CC[C@H](C)[C@@H]1NC(=O)[C@H](CC(N)=O)NC(=O)[C@H](CO)NC(=O)[C@H](Cc2ccccc2)NC(=O)[C@H](Cc2cccc3ccccc23)NC(=O)[C@H](CCCCN)NC(=O)[C@H](CC(N)=O)NC(=O)[C@H](N)CSSC[C@@H](C(=O)N[C@@H](Cc2c[nH]c3ccccc23)C(=O)O)NC1=O
7 | 6.15 | CC[C@H](C)[C@@H]1NC(=O)[C@H](CC(N)=O)NC(=O)[C@H](CO)NC(=O)[C@H](Cc2ccccc2)NC(=O)[C@H](Cc2ccc(O)cc2)NC(=O)[C@H](CCCCN)NC(=O)[C@H](CC(N)=O)NC(=O)[C@H](CO)NC(=O)[C@H](C(C)C)NC(=O)[C@@H](N)CSSC[C@@H](C(=O)O)NC(=O)[C@H](Cc2c[nH]c3ccccc23)NC(=O)[C@H](Cc2c[nH]cn2)NC1=O
8 | 7.40 | CC[C@H](C)[C@@H]1NC(=O)[C@H](CC(N)=O)NC(=O)[C@H](CO)NC(=O)[C@H](Cc2ccccc2)NC(=O)[C@H](Cc2ccc(O)cc2)NC(=O)[C@H](CCCCN)NC(=O)[C@H](CC(N)=O)NC(=O)[C@H](N)CSSC[C@@H](C(=O)N[C@@H](Cc2c[nH]c3ccccc23)C(=O)O)NC1=O
9 | < 4.52 | CC[C@H](C)[C@@H]1NC(=O)[C@@H](CC(N)=O)NC(=O)[C@H](CO)NC(=O)[C@H](Cc2ccccc2)NC(=O)[C@H](Cc2ccc(O)cc2)NC(=O)[C@H](CCCCN)NC(=O)[C@H](CC(N)=O)NC(=O)[C@@H](N)CSSC[C@@H](C(=O)N[C@@H](Cc2c[nH]c3ccccc23)C(=O)O)NC1=O
10 | < 4.52 | CC[C@H](C)[C@@H]1NC(=O)[C@H](CC(N)=O)NC(=O)[C@H](CO)NC(=O)[C@H](Cc2ccccc2)NC(=O)[C@H](Cc2ccc(O)cc2)NC(=O)[C@H](CCCCN)NC(=O)[C@@H](CC(N)=O)NC(=O)[C@@H](N)CSSC[C@@H](C(=O)N[C@@H](Cc2c[nH]c3ccccc23)C(=O)O)NC1=O
11 | 7.22 | CCCC[C@@H]1NC(=O)[C@H](CC(N)=O)NC(=O)[C@H](N)CSSC[C@@H](C(=O)N[C@@H](Cc2c[nH]c3ccccc23)C(=O)O)NC(=O)[C@H]([C@@H](C)CC)NC(=O)[C@H](CC(N)=O)NC(=O)[C@H](CO)NC(=O)[C@H](Cc2ccccc2)NC(=O)[C@H](Cc2ccc(O)cc2)NC1=O (H-[dC]N[Nle]YFSNICW-OH; disulfide 1-9)
